Experimental data reported in publication PMC9511441, “Semisynthetic teicoplanin derivatives with dual antimicrobial activity against SARS-CoV-2 and multiresistant bacteria” (Scientific Reports, 2022).
≈ marks a conversion by molar mass, not a printed value. Where two headings read alike, the source gives them in different places.

Experiments:
S. aureus ATCC29213 [1] = assay: Fluorescent competition assay, release of fluorescent teicoplanin; type: binding; settings: cells saturated with FL-TEI, Fig. 7 right panel
[2] = tested on: Acinetobacter baumannii ATCC BAA1605; assay: MIC against Gram-negative strain; settings: Acinetobacter baumannii, ATCCBAA1605
VeroE6 cells = assay: Cytotoxicity in mock-infected VeroE6 cells (XTT); type: cell-based, African green monkey; settings: mock-infected Vero E6 cells, three days, XTT
[3] = tested on: Klebsiella pneumoniae ST258 clone K 160/09; assay: MIC against Gram-negative strain; settings: Klebsiella pneumoniae
Calu-3 cells = assay: Cytotoxicity in mock-infected Calu-3 cells (XTT); settings: read-out: CC50, Calu-3 cells, three days
HEL cells = assay: Cytotoxicity in mock-infected HEL cells (MTS); type: cell-based, human; settings: mock-infected HEL cells, MTS, mean of 2–3 tests
[4] = tested on: Escherichia coli ATCC 25218; assay: MIC against Gram-negative strain; settings: ATCC25218
S. aureus ATCC29213 [5] = assay: Fluorescent competition assay, release of fluorescent vancomycin; settings: cells saturated with FL-VAN, Fig. 7 left panel
HCoV-229E = assay: CPE reduction assay, HCoV-229E in HEL cells; type: cell-based
SARS-CoV-2 pseudovirus = assay: microbe, parasite or virus in culture; type: cell-based; settings: cathepsin-dependent endosomal pathway
[6] = biological target: T1, human recombinant cathepsin L (Homo sapiens, UniProt P07711); assay: biochemical; type: biochemical
T1 construct: made in house; host or cells: Escherichia coli
T1 sequence (P07711 114-333): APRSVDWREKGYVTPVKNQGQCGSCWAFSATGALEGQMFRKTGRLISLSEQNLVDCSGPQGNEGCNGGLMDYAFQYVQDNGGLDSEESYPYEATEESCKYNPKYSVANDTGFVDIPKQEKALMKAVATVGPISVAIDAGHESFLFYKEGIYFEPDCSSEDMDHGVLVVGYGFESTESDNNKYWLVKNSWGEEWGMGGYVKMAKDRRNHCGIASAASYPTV

S. aureus = assay: MIC, broth microdilution; type: cell-based; settings: Staphylococcus aureus
S. haemolyticus = assay: MIC, broth microdilution; type: cell-based; settings: Staphylococcus haemolyticus
E. faecalis = assay: MIC, broth microdilution; type: cell-based; settings: Enterococcus faecalis
S.pyogenes = assay: MIC, broth microdilution; type: cell-based; settings: Streptococcus pyogenes
[7] = tested on: Pseudomonas aeruginosa ATCC 27853; assay: MIC against Gram-negative strain; settings: ATCC27853
S. epidermidis = assay: microbe, parasite or virus in culture; type: cell-based; settings: Staphylococcus epidermidis
E. faecium = assay: microbe, parasite or virus in culture; type: cell-based; settings: for MIC: Enterococcus faecium

CC(=O)N[C@H]1[C@H](O[C@@H]2c3ccc(c(Cl)c3)Oc3cc4cc(c3O)Oc3ccc(cc3Cl)C[C@H]3NC(=O)[C@H](NC(=N)N)c5ccc(O)c(c5)Oc5cc(O)cc(c5)[C@H](NC3=O)C(=O)N[C@H]4C(=O)N[C@H]3C(=O)N[C@@H]2C(=O)N[C@H](C(=O)O)c2cc(O)cc(O)c2-c2cc3ccc2O)O[C@H](CO)[C@@H](O)[C@@H]1O [Compound 6]
Outcompeting fluorescent teicoplanin from S. aureus (in words) (S. aureus ATCC29213 [1]): the most active competitor | MIC [2]: 128 µg/mL (≈ 88.6 µM) | CC50 (VeroE6 cells): > 100 µM | MIC [3]: 128 µg/mL (≈ 88.6 µM) | CC50 (Calu-3 cells): > 100 µM | CC50 (HEL cells): > 100 µM | MIC [4]: 128 µg/mL (≈ 88.6 µM) | Outcompeting fluorescent vancomycin from S. aureus (in words) (S. aureus ATCC29213 [5]): highly effective at outcompeting fluorescent vancomycin | Activity against HCoV-229E CPE (in words) (HCoV-229E): only modest activity | Inhibition of pseudovirus entry in Vero cells (in words) (SARS-CoV-2 pseudovirus): moderately active | Cathepsin L inhibition (in words) [6]: did not prove to be an inhibitor | IC50 ([6]; read-out: Cathepsin L IC50, pH 5.5, Z-Phe-Arg-AMC substrate): > 500 µM | MIC (S. aureus; ATCC 29213 / MSSA, read-out: MIC value, S. aureus ATCC29213, MSSA): 0.25 µg/mL (≈ 0.173 µM) | MIC (S. aureus; MRSA / USA300, read-out: MIC value, S. aureus USA300, CA-MRSA): 0.125 µg/mL (≈ 0.0866 µM) | MIC (S. aureus; MRSA, read-out: Average MIC value, S. aureus CA-MRSA, 1 strain): 0.125 µg/mL (≈ 0.0866 µM) | MIC (S. aureus; MRSA, read-out: Average MIC value, S. aureus MRSA, 7 strains): 0.125 µg/mL (≈ 0.0866 µM) | MIC (S. aureus; MRSA, read-out: MIC value, S. aureus 73OL, MRSA): 0.125 µg/mL (≈ 0.0866 µM) | MIC (S. aureus; MRSA, read-out: MIC value, S. aureus 214OL, MRSA): 0.125 µg/mL (≈ 0.0866 µM) | MIC (S. aureus; MRSA, read-out: MIC value, S. aureus 1041OL, MRSA): 0.125 µg/mL (≈ 0.0866 µM) | MIC (S. aureus; MRSA, read-out: MIC value, S. aureus A6918, MRSA): 0.125 µg/mL (≈ 0.0866 µM) | MIC (S. aureus; MRSA, read-out: MIC value, S. aureus A6919, MRSA): 0.125 µg/mL (≈ 0.0866 µM) | MIC (S. aureus; MRSA, read-out: MIC value, S. aureus Mu50, MRSA): 0.125 µg/mL (≈ 0.0866 µM) | MIC (S. aureus; MRSA, read-out: MIC value, S. aureus N315, MRSA): 0.125 µg/mL (≈ 0.0866 µM) | MIC (S. aureus; MSSA / NEWMAN, read-out: MIC value, S. aureus Newman, MSSA): 0.25 µg/mL (≈ 0.173 µM) | MIC (S. aureus; MSSA, read-out: Average MIC value, S. aureus MSSA, 4 strains): 0.188 µg/mL (≈ 0.13 µM) | MIC (S. aureus; MSSA, read-out: MIC value, S. aureus MSSA476, MSSA): 0.125 µg/mL (≈ 0.0866 µM) | MIC (S. aureus; MSSA, read-out: MIC value, S. aureus SA564, MSSA): 0.125 µg/mL (≈ 0.0866 µM) | MIC (S. haemolyticus; S. haemolyticus mecA, 6 strains, read-out: Average MIC value): 0.27 µg/mL (≈ 0.187 µM) | MIC (S. haemolyticus; S.haemolyticus DALB_R1, mecA, read-out: MIC value): 0.5 µg/mL (≈ 0.346 µM) | MIC (S. haemolyticus; S.haemolyticus DALB_R2, mecA, read-out: MIC value): 0.25 µg/mL (≈ 0.173 µM) | MIC (S. haemolyticus; S.haemolyticus DALB_R3, mecA, read-out: MIC value): 0.25 µg/mL (≈ 0.173 µM) | MIC (S. haemolyticus; S.haemolyticus DALB_R4, mecA, read-out: MIC value): 0.125 µg/mL (≈ 0.0866 µM) | MIC (S. haemolyticus; S.haemolyticus DALB_R5, mecA, read-out: MIC value): 0.25 µg/mL (≈ 0.173 µM) | MIC (S. haemolyticus; S.haemolyticus ORI_R1, mecA, read-out: MIC value): 0.25 µg/mL (≈ 0.173 µM) | MIC (E. faecalis; read-out: Average MIC value, E. faecalis VAN^R,TEI^R/VanA, 1 strain): 0.125 µg/mL (≈ 0.0866 µM) | MIC (E. faecalis; read-out: Average MIC value, E. faecalis VAN^S, TEI^S, 2 strains): 0.125 µg/mL (≈ 0.0866 µM) | MIC (E. faecalis; read-out: MIC value, E.faecalis JH2-2): 0.125 µg/mL (≈ 0.0866 µM) | MIC (E. faecalis; read-out: MIC value, E.faecalis OG1RF): 0.125 µg/mL (≈ 0.0866 µM) | MIC (E. faecalis; read-out: MIC value, E.faecalis V583, VAN,TEI/VanA): 0.125 µg/mL (≈ 0.0866 µM) | MIC (S.pyogenes; read-out: MIC value, S.pyogenes H232): 0.125 µg/mL (≈ 0.0866 µM) | MIC (S.pyogenes; read-out: MIC value, S.pyogenes H550): 0.125 µg/mL (≈ 0.0866 µM) | MIC (S.pyogenes; read-out: MIC value, S.pyogenes H578): 0.125 µg/mL (≈ 0.0866 µM) | MIC [7]: 256 µg/mL (≈ 177 µM) | MIC (S. epidermidis; read-out: Average MIC value, S. epidermidis mecA, 6 strains): 0.1 µg/mL (≈ 0.0692 µM) | MIC (S. epidermidis; read-out: MIC value, S.epidermidis ORI_R1, mecA): 0.0625 µg/mL (≈ 0.0433 µM) | MIC (S. epidermidis; read-out: MIC value, S.epidermidis ORI_R2, mecA): 0.125 µg/mL (≈ 0.0866 µM) | MIC (S. epidermidis; read-out: MIC value, S.epidermidis ORI_R3, mecA): 0.0625 µg/mL (≈ 0.0433 µM) | MIC (S. epidermidis; read-out: MIC value, S.epidermidis ORI_R4, mecA): 0.0625 µg/mL (≈ 0.0433 µM) | MIC (S. epidermidis; read-out: MIC value, S.epidermidis TEI_R1, mecA): 0.0625 µg/mL (≈ 0.0433 µM) | MIC (S. epidermidis; read-out: MIC value, S.epidermidis TEI_R2, mecA): 0.25 µg/mL (≈ 0.173 µM) | MIC (E. faecium; read-out: Average MIC value, E. faecium VAN^R,TEI^R/VanA, 8 strains): 0.156 µg/mL (≈ 0.108 µM) | MIC (E. faecium; read-out: Average MIC value, E. faecium VAN^S, TEI^S, 1 strain): 0.0625 µg/mL (≈ 0.0433 µM) | MIC (E. faecium; read-out: MIC value, E.faecium E335, VAN,TEI,LNZ/VanA): 0.125 µg/mL (≈ 0.0866 µM) | MIC (E. faecium; read-out: MIC value, E.faecium E355, VAN,TEI,LNZ/VanA): 0.125 µg/mL (≈ 0.0866 µM) | MIC (E. faecium; read-out: MIC value, E.faecium E832, VAN,TEI,LNZ/VanA): 0.125 µg/mL (≈ 0.0866 µM) | MIC (E. faecium; read-out: MIC value, E.faecium E854, VAN,TEI,LNZ/VanA): 0.125 µg/mL (≈ 0.0866 µM) | MIC (E. faecium; read-out: MIC value, E.faecium E859, VAN,TEI,LNZ/VanA): 0.125 µg/mL (≈ 0.0866 µM) | MIC (E. faecium; read-out: MIC value, E.faecium E1114, VAN,TEI,LNZ/VanA): 0.5 µg/mL (≈ 0.346 µM) | MIC (E. faecium; read-out: MIC value, E.faecium E1131, VAN,TEI,LNZ/VanA): 0.0625 µg/mL (≈ 0.0433 µM) | MIC (E. faecium; read-out: MIC value, E.faecium E1132, VAN,TEI,LNZ/VanA): 0.0625 µg/mL (≈ 0.0433 µM) | MIC (E. faecium; read-out: MIC value, E.faecium TX0016): 0.0625 µg/mL (≈ 0.0433 µM) | Activity against E. faecium strains expressing the VanA resistance phenotype (in words) (E. faecium; VanA phenotype): strong activity
